{"source": "patent US10082499B2", "about": "“Short term isotope pulse labeling method for analysing metabolic products in biological samples” (Max-Delbrueck-Centrum fuer Molekulare Medizin, priority 2014, dated 2018)", "tested_on": "T98G cells", "assay": "pSIRM analysis of glycolytic inhibition (13C-glucose pulse labeling, GC-MS)", "format": "cell-based", "protocol": "GC-MS measurement: Metabolite analysis was performed on a gas chromatography coupled to time of flight mass spectrometer (LECO-Pegasus III— TOF-MS-System, LECO), supplemented with an auto-sampler (MultiPurpose Sampler 2 XL, Gerstel). Samples and quantification standards were injected in split mode (split 1:5, injection volume: 1 ul,) in a temperature-controlled injector (CAS4, Gerstel) with a baffled glass-liner (Gerstel). The following temperature program was applied during sample injection: Initial temperature of 80° C. for 30 s followed by a ramp with 12° C./min to 120° C. and a second ramp with 7° C./min to 300° C. and final hold for 2 min. Gas chromatographic separation was performed on an Agilent 6890N (Agilent), equipped with a Varian VF-5 ms-column of 30 m length, 250 μm inner diameter and 0.25 μm film thickness (Varian). Helium was used as carrier gas with a flow rate of 1.2 mL/min. Gas chromatography was performed with the following temperature gradient: 2 min heating at 70° C., first temperature gradient with 5° C./min up to 120° C. and hold for 30 s, subsequently a second temperature increase of 7° C./min up to 350° C. with a hold time of 2 min. Spectra were recorded in a mass range of 60 to 600 u with 20 spectra/s at a detector voltage of 1750 V.\nData analysis: The vendor software ChromaTOF Version 4.42 (LECO Corp. St. Joseph—USA) was used for metabolite evaluation with the following parameter: baseline offset of 1, peak width of 4 s, signal/noise of 20, peak smoothing of 11 data-points. Retention indices were calculated based on retention index standards as described (Ref). GoIm Metabolome Database (GMD) provided peak identification. The quantification routine of ChromaTOF was used for external calibration based on the measured quantification standards. Exported csv-files included: Name, quant mass, retention index, 1st dimension retention time, 2nd dimension retention time, area, concentration, match, reverse, quant signal/noise, type, concentration units and the peak true spectrum in absolute values. For further data analysis the tool MetMax was developed in cooperation with the MPIMP in Potsdam-Golm (http://gmd.mpimp-golm.mpg.de/apps/metmax). MetMax provided of extraction of peak areas and quantities (retention analysis mode), and intensities of pre-defined mass ranges (isotope concentrator mode) from the exported csv-files. The in-house developed pSIRM-wizard enabled the determination of ^13C-label incorporation based on the exported data following the descriptions and equations stated in the paper.\nCell harvest: Growth media was removed from cells and cells were incubated in 5 ml of prewarmed (37° C.) wash-buffer (137 mM NaCl, 3 mM KCl, 5 mM HEPES, adjusted to a pH of 7.2-7.4) enriched with the same amount of glucose and glutamine as in the growth media (2.5 g/L and 4 mM respectively). For the metabolic labeling the wash-buffer is used as labeling buffer with glucose or glutamine replaced by their ^13C-counterpart. Cells were incubated for 3 minutes at 37° C. before harvest. The buffer was removed followed by an immediate addition of 5 ml of prechilled (−20 to −40° C.) 50% MeOH (with 2-4 μg/mL Cinnamic acid as internal standard) to the plate. Cells were scratched of the plates using cell-scraper and transferred to a falcon, which contain 1 ml of chloroform. Cell suspension was frozen in liquid nitrogen and stored at −80° C. until extraction. To extract cell metabolism the suspension was shaken for 30 minutes at 4° C., followed by a centrifugation for 10 minutes to perform phase separation. 4.5 ml of the upper, polar phase were transferred into a new falcon and dried under vacuum. On the next day the pellet was resuspended in 530 μl 20% Methanol (4° C.), shaken at 4° C. until completely solved, transferred into two eppies (2×250 μl) and dried under vacuum. The dried samples were stored at −20° C. and derivatized as described above. […]", "key": {"[1]": {"details": "2 mM inhibitor 12 min + 3 min 13C-glucose"}, "[2]": {"details": "2 mM inhibitor 12 min, then 3 min 13C-glucose in presence of inhibitor"}}, "note": "“Also recorded” adds a separate entry of the source.", "data": [{"compound": "O=CC[C@@H](O)[C@H](O)[C@H](O)CO", "note": "[2DG, 2-deoxyglucose]", "values": [{"measurement": "13C-glucose incorporation (carbon flow) into citrate", "setting": "[1]", "value": "extended; also recorded: increasing"}, {"measurement": "inhibitory effect on glycolysis", "setting": "[1]", "value": "negligible"}, {"measurement": "isotope incorporation in pyruvate and lactate / pyruvate or lactate levels", "setting": "[1]", "value": "affected only marginally; also recorded: did not affect"}, {"measurement": "reduction of the 13C-fraction of hexose-phosphates", "setting": "[2]", "value": 20, "unit": "%"}, {"measurement": "inhibitory effect on glycolysis", "setting": "10 mM inhibitor", "value": "stronger inhibition"}, {"measurement": "isotope incorporation rates in G6P", "setting": "10 mM inhibitor", "value": "not affected"}, {"measurement": "reduction of glycolytic flow", "setting": "10 mM inhibitor", "value": "up to 80%"}]}, {"compound": "O=C(O)C(=O)CBr", "note": "[BrPyr]", "values": [{"measurement": "carbon flow downstream of GAPDH", "setting": "2 mM inhibitor", "value": "strong decline"}, {"measurement": "concentration of 3PGA", "setting": "[1]", "value": "diminished below the detection limit"}, {"measurement": "inhibitory effect on glycolysis", "setting": "[1]", "value": "nearly completely inhibited"}, {"measurement": "labelled fraction of G6P and F6P", "setting": "[1]", "value": "reduced"}, {"measurement": "total concentration of G6P and F6P (hexose phosphates)", "setting": "[1]", "value": "increased"}, {"measurement": "reduction of carbon-flow into pyruvate, lactate and citrate", "setting": "[2]", "value": "around 100%"}]}]}
